Some test systems named below: SK-OV-3 ovarian; CAKI-1 renal; OVCAR-3 ovarian; RPMI-8226 leukemia; HOP-92 NSCLC; MALME-3M melanoma; NCI-H23 lung; UO-31 renal; 786-0 renal; ACHN renal; NCI-H226 lung; MDA-MB-231 breast.
Common to all, as to assay: NCI anticancer screen, dose series, 48 h

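These data come from cells grown in 96-well plates and exposed to compound for 48 hours at five concentrations. The concentration for full growth arrest is given as TGI.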 Where only a bound is given, the exact number is not on record here.

Turning to `Nc1c(S(=O)(=O)c2ccccc2)c2nc3ccccc3nc2n2c1nc1ccccc12`, the TGI in the test on SK-OV-3 ovarian was more than 100 µM; in the test with CAKI-1 renal it was more than 100 µM; in the test with OVCAR-3 ovarian, more than 100 µM; in the test on RPMI-8226 leukemia, more than 100 µM; with HOP-92 NSCLC, more than 100 µM; in the test on MALME-3M melanoma, more than 80.9 µM. In addition, the TGI in the test on NCI-H23 lung is more than 50 µM; in the test on UO-31 renal, more than 100 µM; in the test with 786-0 renal, more than 50.5 µM; in the test with ACHN renal, more than 100 µM; in the test on NCI-H226 lung it was more than 75.1 µM.

Regarding `Cc1ccc(NC(=O)C(=O)C2C(=O)NC(=O)NC2=O)cc1C`, the TGI with SK-OV-3 ovarian, with CAKI-1 renal, in the test on OVCAR-3 ovarian, in the test on RPMI-8226 leukemia, in the test with HOP-92 NSCLC and in the test on MALME-3M melanoma was more than 100 µM in each case. Moreover, the TGI in the test with NCI-H23 lung, in the test with UO-31 renal, in the test with 786-0 renal, in the test with ACHN renal and in the test with NCI-H226 lung was more than 100 µM throughout.

Take `O=C1c2ccccc2C(=O)N1C/C=N/NS(=O)(=O)c1ccc(Br)cc1`: the TGI in the test on SK-OV-3 ovarian, in the test on CAKI-1 renal, in the test on OVCAR-3 ovarian, with RPMI-8226 leukemia, in the test with HOP-92 NSCLC and in the test on MALME-3M melanoma was more than 100 µM in each case. The TGI with NCI-H23 lung, with UO-31 renal, in the test with 786-0 renal, in the test on ACHN renal and in the test on NCI-H226 lung was more than 100 µM in each case.

Turning to `Cc1cc(C)nc(NC(P(=O)(O)O)P(=O)(O)O)n1`, the TGI in the test with SK-OV-3 ovarian, in the test with CAKI-1 renal, in the test with OVCAR-3 ovarian, in the test on MALME-3M melanoma, in the test on NCI-H23 lung and with UO-31 renal was more than 100 µM in each case. Also, the TGI with 786-0 renal, in the test on MDA-MB-231 breast, in the test on ACHN renal and in the test with NCI-H226 lung was more than 100 µM each time.

Turning to `CC1(C)OP(=O)(O)C=C1Sc1ccc([N+](=O)[O-])cc1[N+](=O)[O-]`, the TGI with SK-OV-3 ovarian, in the test with CAKI-1 renal, in the test on OVCAR-3 ovarian, in the test on HOP-92 NSCLC, in the test with MALME-3M melanoma and with NCI-H23 lung was more than 100 µM each time. Further, the TGI in the test with 786-0 renal, in the test with ACHN renal and in the test with NCI-H226 lung was more than 100 µM throughout.

For `C[n+]1c2ccccc2c(NC(CCCN=C(N)N)C(=O)O)c2ccccc21` (stereo unspecified), the TGI in the test with SK-OV-3 ovarian, in the test on CAKI-1 renal, with OVCAR-3 ovarian, in the test with RPMI-8226 leukemia, with HOP-92 NSCLC and in the test on MALME-3M melanoma was more than 100 µM throughout. In addition, the TGI with NCI-H23 lung, in the test with UO-31 renal, in the test with 786-0 renal, with ACHN renal and in the test with NCI-H226 lung was more than 100 µM throughout.

In the case of `COc1ccc2nc3cc(Cl)ccc3c(Sc3ccc(NC(C)=O)cc3)c2c1`, the TGI in the test with SK-OV-3 ovarian is more than 61.9 µM; with CAKI-1 renal, more than 50.6 µM; with OVCAR-3 ovarian, more than 22.8 µM; in the test with RPMI-8226 leukemia, 83.8 µM; with HOP-92 NSCLC, more than 27 µM; in the test on MALME-3M melanoma, more than 51.8 µM. The TGI with NCI-H23 lung was more than 33.5 µM; in the test with UO-31 renal, more than 33.4 µM; with 786-0 renal, more than 20.1 µM; in the test on ACHN renal it was 18.7 µM; in the test on NCI-H226 lung, more than 30.9 µM.

For the compound `COc1ccc(CNc2nc(NC3CCCCC3)nc(NC3CCCCC3)n2)cc1`, the TGI is more than 100 µM with SK-OV-3 ovarian; more than 100 µM in the test on CAKI-1 renal; more than 100 µM with OVCAR-3 ovarian; more than 100 µM in the test on HOP-92 NSCLC; 64.2 µM with MALME-3M melanoma; 12.6 µM with NCI-H23 lung. Further, the TGI in the test on UO-31 renal is 67.2 µM; in the test with 786-0 renal, 70.3 µM; in the test on MDA-MB-231 breast it was 20.1 µM; with ACHN renal, more than 100 µM; in the test on NCI-H226 lung it was 15.5 µM.

Regarding `COc1cccc(-c2nc(-c3cnccn3)n(C/C=C/c3ccccc3)n2)c1`, the TGI in the test with OVCAR-3 ovarian, with HOP-92 NSCLC, with MALME-3M melanoma, in the test on NCI-H23 lung, in the test on UO-31 renal and in the test with 786-0 renal was more than 10 µM in each case. The TGI with ACHN renal and in the test on NCI-H226 lung was more than 10 µM throughout.

Take `COc1ccc(C2c3cc4c(cc3OC(N3CCOCC3)C2C)OCO4)cc1` (stereo unspecified): the TGI was 55.1 µM in the test on CAKI-1 renal; more than 86.1 µM in the test with OVCAR-3 ovarian; 61.7 µM with RPMI-8226 leukemia; 58.2 µM with HOP-92 NSCLC; 40.7 µM in the test with MALME-3M melanoma; more than 100 µM in the test on NCI-H23 lung. The TGI in the test on UO-31 renal, in the test with 786-0 renal and in the test on ACHN renal was more than 100 µM each time.

In the case of `CCOC(=O)c1ccc(-c2ccc(Cl)cc2)[nH]1`, the TGI in the test on SK-OV-3 ovarian, in the test on OVCAR-3 ovarian, in the test with HOP-92 NSCLC, with MALME-3M melanoma, in the test on NCI-H23 lung and with UO-31 renal was more than 10 µM each time. In addition, the TGI in the test with 786-0 renal, in the test with ACHN renal and in the test on NCI-H226 lung was more than 10 µM throughout.

As to `COc1cc(-c2nnc3n2NC=C(C(=O)O)S3)cc(OC)c1OC`, the TGI was more than 100 µM in the test with SK-OV-3 ovarian; more than 100 µM in the test on CAKI-1 renal; more than 100 µM in the test on OVCAR-3 ovarian; more than 68.7 µM in the test with RPMI-8226 leukemia; more than 100 µM in the test with HOP-92 NSCLC; more than 100 µM in the test with MALME-3M melanoma. For the same compound, the TGI in the test with NCI-H23 lung was more than 100 µM; with UO-31 renal, more than 100 µM; with 786-0 renal, more than 76.3 µM; with ACHN renal it was more than 100 µM; in the test on NCI-H226 lung, more than 100 µM.

`O=C(NCCN1CCOCC1)c1ccc(I)cc1`: the TGI in the test with SK-OV-3 ovarian, with CAKI-1 renal, with OVCAR-3 ovarian, in the test on RPMI-8226 leukemia, in the test on NCI-H23 lung and in the test on UO-31 renal was more than 100 µM each time. In addition, the TGI with 786-0 renal, in the test with ACHN renal and in the test with NCI-H226 lung was more than 100 µM in each case.
